# Results reported in patent publication US7875282B2 (Cordis Corporation, priority 2004, dated 2011).
# Key:
# [1] = tested on: human coronary artery smooth muscle cells; assay: Anti-proliferative activity in synchronized cultured cells stimulated with two percent fetal bovine serum; format: cell-based; details: for effect of addition on the anti-proliferative activity of rapamycin: added to rapamycin
# Excerpt: The multiple curves represent various concentrations of topotecan ranging from zero to three hundred nanomolar concentrations.
# The multiple curves represent various concentrations of etoposide ranging from zero to eight hundred nanomolar concentrations.
# The multiple curves represent various concentrations of Panzem® ranging from zero to 100 micromolar concentrations.
# [2] = tested on: human smooth muscle cells; assay: PDGF-stimulated proliferation of human smooth muscle cells, cell count; format: cell-based; details: from IC50 values
# Procedure: To assess the ability of cladribine to prevent cell proliferation, human smooth muscle or endothelial cells (Clonetics, Walkersville, Md.) were seeded at a density of 2000 cells/cm^2 (approximately 3600 cells/well) into each well of 12-well plates and cultured with 1.5 ml of growth medium containing five percent fetal calf serum (FCS). After twenty-four hours, the growth medium was changed and fresh medium containing 10 ng/ml platelet-derived growth factor AB (PDGF AB; LIFE Technologies), as well as various concentrations of cladribine (0.001-10,000 nM) were added with triplicate wells. Medium was replaced with fresh cladribine-containing medium after three days. On day six, cells were detached by trypsinization to yield a cell suspension, lightly centrifuged to pellet and then counted manually using a Neubauer hemocytometer system. Cell viability was assessed by trypan blue exclusion.
# [3] = tested on: human coronary artery smooth muscle cells; assay: Anti-proliferative activity in non-synchronized cultured cells stimulated with two percent fetal bovine serum; format: cell-based; details: for effect of addition on the anti-proliferative activity of rapamycin: non-synchronized cells, added to rapamycin
# Excerpt: The multiple curves represent various concentrations of mycophenolic acid ranging from zero to one thousand nanomolar concentrations.
# FIG. 58 illustrates, in graphical format, the anti-proliferative activity of cladribine in non-synchronized cultured human coronary artery smooth muscle cells stimulated with two percent fetal bovine serum.
# The multiple curves represent various concentrations of cladribine ranging from zero to nine hundred nanomolar concentrations.
# [4] = In vivo release kinetics from rapamycin, cladribine and polymer coating, porcine pharmacokinetics studies; set-up: species or system Yorkshire pigs; details: Bx Velocity stents, BMA topcoat
# Excerpt: (§1) The basecoat is applied to Bx Velocity® stents and implanted into Yorkshire pigs.
# as §1
# [5] = In vivo release kinetics from rapamycin, mycophenolic acid and polymer coating, porcine pharmacokinetics studies; details: one hundred eighty micro grams each drug
# [6] = tested on: human coronary artery smooth muscle cell; assay: In vitro cell culture study of coronary artery smooth muscle cell proliferation; format: cell-based
# Excerpt: FIG. 51 is a graph of the inhibition of coronary artery smooth muscle cells by trichostatin A in a cell culture study.
# [7] = tested on: tumor cell lines; details: Woo et al., J. Med Chem 2002; cited from earlier work
smiles,measurement,setting,value
"COc1cc2c(cc1O)CC[C@@H]1[C@@H]2CC[C@]2(C)[C@@H](O)CC[C@@H]12 [Panzem®, 2-methoxyestradiol]",effect of addition on the anti-proliferative activity of rapamycin,[1],increases the percent of inhibition of rapamycin alone
same,anti-proliferative activity,[1]; agent alone,extremely effective inhibitor of human coronary artery smooth muscle cell proliferation
"Nc1nc(Cl)nc2c1ncn2[C@H]1C[C@H](O)[C@@H](CO)O1 [cladribine, 2-chlorodeoxyadenosine]",potency as inhibitor of smooth muscle cells relative to endothelial cells,[2],approximately twice
same,effect of addition on the anti-proliferative activity of rapamycin,[3],increases the percent inhibition of rapamycin alone
same,inhibition of human coronary artery smooth muscle cell proliferation,"[3]; non-synchronized, two percent fetal bovine serum",completely inhibits
same,elution from EVA/BMA basecoat compared with rapamycin,[4],elutes more rapidly than rapamycin
COc1cc([C@@H]2c3cc4c(cc3[C@@H](O[C@@H]3O[C@@H]5CO[C@@H](C)O[C@H]5[C@H](O)[C@H]3O)[C@H]3COC(=O)[C@H]23)OCO4)cc(OC)c1O [etoposide],effect of addition on the anti-proliferative activity of rapamycin,[1],increases the percent inhibition of rapamycin alone
COc1c(C)c2c(c(O)c1C/C=C(\C)CCC(=O)O)C(=O)OC2 [mycophenolic acid],effect of addition on the anti-proliferative activity of rapamycin,[3],potentiates the anti-proliferative activity of rapamycin
same,elution from EVA/BMA basecoat compared with rapamycin,[5],elutes more completely over a shorter duration than the rapamycin
CC[C@@]1(O)C(=O)OCc2c1cc1n(c2=O)Cc2cc3c(CN(C)C)c(O)ccc3nc2-1 [topotecan],effect of addition on the anti-proliferative activity of rapamycin,[1],increases the percent inhibition of rapamycin alone
CC(/C=C/C(=O)NO)=C\[C@@H](C)C(=O)c1ccc(N(C)C)cc1 [trichostatin A],inhibition of human coronary artery smooth muscle cell proliferation,[6],completely inhibit
same,IC50,[6]; read-out: anti-proliferative IC50,~6 nM
same,anti-proliferative IC50's,[7],low nM range
